Data reported in US11697646B2, “Triazole N-linked carbamoyl cyclohexyl acids as LPA antagonists” (BRISTOL-MYERS SQUIBB COMPANY, priority 2017, dated 2023).

Target: T1, human LPA1 (Homo sapiens, UniProt Q92633)
T1 construct: expressed in transfected cells; host or cells: Chinese hamster ovary (CHO) cells
Experiment: LPA1 functional antagonist assay (calcium flux)
Assay type: cell-based
Details: CHO cells overexpressing human LPA1; calcium flux induced by 10 nM LPA; read-out: hLPA1 IC50
Experimental: The effectiveness of compounds of the present invention as LPA1 inhibitors can be determined in an LPA1 functional antagonist assay as follows:
The cells were then equilibrated to room temperature for 30 minutes before the assay. […] IC50 values were determined by fitting data to a 4-parameter logistic equation (GraphPad Prism, San Diego Calif.).

T1 sequence (Q92633 whole entry): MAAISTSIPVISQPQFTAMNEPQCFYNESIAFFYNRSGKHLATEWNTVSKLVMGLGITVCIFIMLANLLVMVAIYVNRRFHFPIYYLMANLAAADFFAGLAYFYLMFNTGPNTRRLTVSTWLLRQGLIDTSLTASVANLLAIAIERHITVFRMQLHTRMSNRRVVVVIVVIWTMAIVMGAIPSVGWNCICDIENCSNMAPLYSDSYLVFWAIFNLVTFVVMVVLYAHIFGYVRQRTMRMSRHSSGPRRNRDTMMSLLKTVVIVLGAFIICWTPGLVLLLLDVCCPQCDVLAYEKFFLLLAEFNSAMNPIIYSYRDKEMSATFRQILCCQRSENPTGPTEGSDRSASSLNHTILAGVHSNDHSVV

SMILES | IC50
Cc1nc(-c2nnn(C)c2NC(=O)OCCC(C)(C)C)ccc1O[C@H]1CCC[C@H](C(=O)O)C1 [Example 65, (1S,3S)-3-((6-(5-(((3,3-dimethyl-butoxy)carbonyl)amino)-1-methyl-1H-1,2,3-triazol-4-yl)-2-methyl-pyridin-3-yl)oxy)cyclohexane-1-carboxylic acid] | 75 nM
Cc1nc(-c2nnn(C)c2CNC(=O)OCC2CC(F)C2)ccc1O[C@H]1CCC[C@H](C(=O)O)C1 (mixture of isomers) [Example 48, (1S,3S)-3-((6-(5-(((((3-fluorocyclobutyl)methoxy)carbonyl)amino)methyl)-1-methyl-1H-1,2,3-triazol-4-yl)-2-methylpyridin-3-yl)oxy)cyclohexane-1-carboxylic acid] | 48 nM
CCCCN(C)S(=O)(=O)N(C)Cc1c(-c2ccc(O[C@H]3CCC[C@H](C(=O)O)C3)c(C)n2)nnn1C [Example 229, (1S,3S)-3-((6-(5-(((N-butyl-N-methyl-sulfamoyl)(methyl)amino)methyl)-1-methyl-1H-1,2,3-triazol-4-yl)-2-methylpyridin-3-yl)oxy)cyclohexane-1-carboxylic acid] | 110 nM
Cc1nc(-c2nnn(C)c2CNC(=O)N(C)C(C)C)ccc1O[C@H]1CCC[C@H](C(=O)O)C1 [Example 134, (1S,3S)-3-((6-(5-((3-isopropyl-3-methylureido)methyl)-1-methyl-1H-1,2,3-triazol-4-yl)-2-methylpyridin-3-yl)oxy)cyclohexane-1-carboxylic acid] | 519 nM
CCCCCCOC(=O)NCc1c(-c2ccc(O[C@H]3CCC[C@H](C(=O)O)C3)cn2)nnn1C [Example 13, (1S,3S)-3-((6-(5-((((hexyloxy)carbonyl)amino)methyl)-1-methyl-1H-1,2,3-triazol-4-yl)pyridin-3-yl)oxy)cyclohexane-1-carboxylic acid] | 428 nM
CCOCCOC(=O)NCc1c(-c2ccc(O[C@H]3CCC[C@H](C(=O)O)C3)c(C)n2)nnn1C [Example 56, (1S,3S)-3-((6-(5-((((2-ethoxyethoxy)carbonyl)amino)methyl)-1-methyl-1H-1,2,3-triazol-4-yl)-2-methyl-pyridin-3-yl)oxy)cyclohexane-1-carboxylic acid] | 885 nM
CCC1(COC(=O)NCc2c(-c3nc(C)c(O[C@H]4CCC[C@H](C(=O)O)C4)cc3F)nnn2C)CC1 [Example 216, (1S,3S)-3-((6-(5-(((((1-ethylcyclo-propyl)methoxy)carbonyl)amino)methyl)-1-methyl-1H-1,2,3-triazol-4-yl)-5-fluoro-2-methylpyridin-3-yl)oxy)cyclohexane-1-carboxylic acid] | 46 nM
Cc1nc(-c2nnn(C)c2CN(C)C(=O)OCc2ccccc2)ccc1O[C@H]1CCC[C@H](C(=O)O)C1 [Example 35, (1S,3S)-3-((6-(5-((((benzyloxy)carbonyl)(methyl)amino)methyl)-1-methyl-1H-1,2,3-triazol-4-yl)-2-methylpyridin-3-yl)oxy)cyclohexanecarboxylic acid] | 56 nM
CCCCC(=O)NCc1c(-c2ccc(O[C@H]3CCC[C@H](C(=O)O)C3)c(C)n2)nnn1C [Example 237, (1S,3S)-3-((2-methyl-6-(1-methyl-5-(pentanamidomethyl)-1H-1,2,3-triazol-4-yl)pyridin-3-yl)oxy)cyclo-hexanecarboxylic acid] | 783 nM
Cc1nc(-c2nnn(C)c2NC(=O)OCC2CCCC2)ccc1O[C@H]1CCC[C@H](C(=O)O)C1 [Example 79, (1S,3S)-3-((6-(5-(((cyclopentylmethoxy)carbonyl)amino)-1-methyl-1H-1,2,3-triazol-4-yl)-2-methylpyridin-3-yl)oxy)cyclohexane-1-carboxylic acid] | 32 nM
Cc1nc(-c2nnn(C)c2CCNC(=O)CC(C)CC(C)(C)C)ccc1O[C@H]1CCC[C@H](C(=O)O)C1 (mixture of isomers) [Example 239, (1S,3S)-3-((2-methyl-6-(1-methyl-5-(2-(3,5,5-trimethylhexanamido)ethyl)-1H-1,2,3-triazol-4-yl)pyridin-3-yl)oxy)cyclohexane-1-carboxylic acid (diastereomeric mixture)] | 1020 nM
Cc1nc(-c2nnn(C)c2NC(=O)OC2CCCC2)ccc1O[C@H]1CCC[C@H](C(=O)O)C1 [Example 66, (1S,3S)-3-((6-(5-(((cyclopentyloxy)carbonyl)amino)-1-methyl-1H-1,2,3-triazol-4-yl)-2-methylpyridin-3-yl)oxy)cyclohexane-1-carboxylic acid] | 68 nM
Cc1nc(-c2nnn(C)c2CNC(=O)OCC2CCC2)c(F)cc1O[C@H]1CCC[C@H](C(=O)O)C1 [Example 212, (1S,3S)-3-((6-(5-((((cyclobutylmethoxy)carbonyl)amino)methyl)-1-methyl-1H-1,2,3-triazol-4-yl)-5-fluoro-2-methylpyridin-3-yl)oxy)cyclohexane-1-carboxylic acid] | 112 nM
CCC1(COC(=O)NCc2c(-c3ccc(O[C@H]4CCC[C@H](C(=O)O)C4)c(C)n3)nnn2C)CC1 [Example 58, (1S,3S)-3-((6-(5-(((((1-ethylcyclopropyl)methoxy)carbonyl)amino)methyl)-1-methyl-1H-1,2,3-triazol-4-yl)-2-methylpyridin-3-yl)oxy)cyclohexane-1-carboxylic acid] | 38 nM
Cc1nc(-c2nnn(C)c2CCNC(=O)Cc2ccccc2)ccc1O[C@H]1CCC[C@H](C(=O)O)C1 [Example 238, (1S,3S)-3-((2-methyl-6-(1-methyl-5-(2-(2-phenylacetamido)ethyl)-1H-1,2,3-triazol-4-yl)pyridin-3-yl)oxy)cyclohexane-1-carboxylic acid] | 138 nM
Cc1nc(-c2nnn(C)c2CCNC(=O)OCC(C)(C)C)ccc1O[C@H]1CCC[C@H](C(=O)O)C1 [Example 104, (1S,3S)-3-((2-methyl-6-(1-methyl-5-(2-(((neopentyloxy)carbonyl)amino)ethyl)-1H-1,2,3-triazol-4-yl)pyridin-3-yl)oxy)cyclohexane-1-carboxylic acid] | 1360 nM
COc1ccc(OC(=O)NCc2c(-c3ccc(O[C@H]4CCC[C@H](C(=O)O)C4)c(C)n3)nnn2C)cc1 [Example 63, (1S,3S)-3-((6-(5-((((4-methoxyphenoxy)carbonyl)amino)methyl)-1-methyl-1H-1,2,3-triazol-4-yl)-2-methylpyridin-3-yl)oxy)cyclo-hexane-1-carboxylic acid] | 792 nM
CC(C)COC(=O)NCc1c(-c2ccc(O[C@H]3CCC[C@H](C(=O)O)C3)cn2)nnn1C [Example 29, (1S,3S)-3-((6-(5-(((isobutoxycarbonyl)amino)methyl)-1-methyl-1H-1,2,3-triazol-4-yl)pyridin-3-yl)oxy)cyclohexane-1-carboxylic acid] | 179 nM
Cc1nc(-c2nnn(C)c2CNC(=O)OCC2CC(C)(C)C2)ccc1O[C@H]1CCC[C@H](C(=O)O)C1 [Example 38, (1S,3S)-3-((6-(5-(((((3,3-dimethylcyclobutyl)methoxy)carbonyl)amino)methyl)-1-methyl-1H-1,2,3-triazol-4-yl)-2-methylpyridin-3-yl)oxy)cyclohexanecarboxylic acid] | 19 nM
Cc1nc(-c2nnn(C)c2NC(=O)OCC(C)C)c(F)cc1O[C@H]1CCC[C@H](C(=O)O)C1 [Example 219, (1S,3S)-3-((5-fluoro-6-(5-((isobutoxycarbonyl)amino)-1-methyl-1H-1,2,3-triazol-4-yl)-2-methylpyridin-3-yl)oxy)cyclohexane-1-carboxylic acid] | 152 nM
CCCCOC(=O)Nc1c(-c2ccc(O[C@H]3CCC[C@H](C(=O)O)C3)c(CC)n2)nnn1C [Example 232, (1 S,3 S)-3-[(6-{5-[(butoxycarbonyl)amino]-1-methyl-1H-1,2,3-triazol-4-yl}-2-ethylpyridin-3-yl)oxy]cyclo-hexane-1-carboxylic acid] | 12 nM
CC(C)OC(=O)Nc1c(-c2ccc(O[C@H]3CCC[C@H](C(=O)O)C3)cn2)nnn1C [Example 220, (1S,3S)-3-((6-(5-((isopropoxy-carbonyl)amino)-1-methyl-1H-1,2,3-triazol-4-yl)pyridin-3-yl)oxy)cyclohexane-1-carboxylic acid] | 389 nM
Cc1cccc(COC(=O)NCc2c(-c3ccc(O[C@H]4CCC[C@H](C(=O)O)C4)c(C)n3)nnn2C)c1 [Example 19, (1S,3S)-3-((2-methyl-6-(1-methyl-5-(((((3-methylbenzyl)oxy)carbonyl)amino)methyl)-1H-1,2,3-triazol-4-yl)pyridin-3-yl)oxy)cyclohexane-1-carboxylic acid] | 4 nM

Same assay, conditions: human LPA1 functional antagonist assay; read-out: hLPA1 IC50

SMILES | IC50
Cc1nc(-c2nnn(C)c2CNC(=O)OCCC2(C)CC2)ccc1O[C@H]1CCC[C@H](C(=O)O)C1 [Example 195, (1S,3S)-3((2-methyl-6-(1-methyl-5-((((2-(1-methylcyclopropyl)ethoxy)carbonyl)amino)methyl)-1H-1,2,3-triazol-4-yl)pyridin-3-yl)oxy)cyclohexane-1-carboxylic acid] | 72 nM
CC[C@H](C)COC(=O)NCc1c(-c2cnc(O[C@H]3CCC[C@H](C(=O)O)C3)c(C)n2)nnn1C [Example 161, (1S,3S)-3-((3-methyl-5-(1-methyl-5-(((((S)-2-methylbutoxy)carbonyl)amino)methyl)-1H-1,2,3-triazol-4-yl)pyrazin-2-yl)oxy)cyclohexane-1-carboxylic acid] | 109 nM
Cc1nc(-c2nnn(C)c2CN(C)C(=O)OCC(C)C)ccc1O[C@H]1CCC[C@H](C(=O)O)C1 [Example 203, (1S,3S)-3-((6-(5-(((isobutoxy-carbonyl)(methyl)amino)methyl)-1-methyl-1H-1,2,3-triazol-4-yl)-2-methylpyridin-3-yl)oxy)cyclo-hexane-1-carboxylic acid] | 91 nM
Cc1nc(-c2nnn(C)c2CNC(=O)OCC(F)(F)C(F)(F)F)ccc1O[C@H]1CCC[C@H](C(=O)O)C1 [Example 198] | 45 nM
